In ChEMBL document CHEMBL4145565, “Prolyl Hydroxylase Inhibitors: A Breakthrough in the Therapy of Anemia Associated with Chronic Diseases” (J Med Chem, 2018):

How the values were obtained:
[1] = biological target: T1, Egl nine homolog 1 (Homo sapiens, UniProt Q9GZT9); test: Inhibition of FLAG- tagged full length HIF-PHD2 (unknown origin) expressed in baculovirus-infected Sf9 cells using biotin labelled DLDLEMLAPYIPMDDDFQL as substrate preincubated for 30 mins followed by substrate addition measured after 2 hrs by LANCE assay
[2] = Inhibition of PHD in human A549 cells by luciferase reporter gene assay; assay type: cell-based
[3] = Inhibition of PHD (unknown origin) by FRET assay; set-up: species or system Homo sapiens
[4] = species on record: Homo sapiens; test: Selectivity ratio of IC50 for HIF-PHD2 (unknown origin) to IC50 for HIF-PHD1 (unknown origin)
[5] = biological target: T2, Prolyl hydroxylase EGLN3 (Homo sapiens, UniProt Q9H6Z9); test: Inhibition of His tagged MBP-PHD3 (1 to 230 residues) (unknown origin) expressed in Escherichia coli using Cy5-labelled HIF2alpha as substrate preincubated for 3 mins followed by substrate addition nmeasured after 30 mins by LANCE assay
[6] = biological target: T1, Egl nine homolog 1; test: Inhibition of human PHD2 expressed in 293FT cells using HIF-1 [alpha] as substrate after 20 mins by fluorescence polarization assay
[7] = Inhibition of PHD in rat H9C2 cells after 24 hrs by ELISA; assay type: cell-based
[8] = Inhibition of PHD (unknown origin); set-up: species or system Homo sapiens
[9] = system: Mus musculus; test: Cardioprotective activity in C57BL/6 mouse assessed as reduction in area of infract at 30 mg/kg measured at 4 hrs post dose relative to control; assay type: functional; set-up: scale not given: the % may be the effect or the level left
[10] = system: Mus musculus; test: Cardioprotective activity in C57BL/6 mouse assessed as reduction in lactate dehydrogenase release to coronary effluent at 30 mg/kg measured at 4 hrs post dose relative to control; assay type: functional; set-up: scale not given: the % may be the effect or the level left
[11] = system: Mus musculus; test: Cardioprotective activity in C57BL/6 mouse assessed as reduction in area of infract at 10 mg/kg measured at 4 hrs post dose relative to control; assay type: functional; set-up: scale not given: the % may be the effect or the level left
[12] = system: Mus musculus; test: Cardioprotective activity in C57BL/6 mouse assessed as reduction in lactate dehydrogenase release to coronary effluent at 10 mg/kg measured at 4 hrs post dose relative to control; assay type: functional; set-up: scale not given: the % may be the effect or the level left
[13] = system: Mus musculus; test: Cardioprotective activity in C57BL/6 mouse assessed as induction in VEGF mRNA levels at 60 mg/kg, po measured at 2 hrs post dose by qRT-PCR relative to control; assay type: functional
[14] = species on record: Homo sapiens; test: Selectivity ratio of IC50 for PHD3 (unknown origin) to IC50 for PHD2 (unknown origin)
[15] = species on record: Homo sapiens; test: Inhibition of PHD (unknown origin) assessed as induction of EPO by cell based assay relative to control
[16] = species on record: Homo sapiens; test: Antianemic activity in human assessed as increase in hemoglobin level; assay type: functional
[17] = system: Homo sapiens; test: In vivo inhibition of PHD in human assessed as induction of EPO level in serum at 1 mg/kg, po administered as twice weekly measured at 4 to 10 hrs post dose; assay type: functional
[18] = Half life in human at 1 to 2 mg/kg, po administered as two or three times weekly; assay type: ADME, organism-based; conditions: in vivo
[19] = biological target: T1, Egl nine homolog 1; test: Inhibition of N-terminal truncated PHD2 (unknown origin) using biotin labelled DLDLEMLAPYIPMDDDFQL as substrate by AlphaScreen assay
[20] = biological target: T1, Egl nine homolog 1; test: Inhibition of HIF-PHD2 (unknown origin) by fluorescence polarization assay
[21] = system: Rattus norvegicus; test: In vivo inhibition of PHD in Wistar rat assessed as increase in packed cell volume at 5 mg/kg, po measured after 26 days relative to control; assay type: functional; set-up: scale not given: the % may be the effect or the level left
[22] = Oral bioavailability in dog; assay type: ADME, organism-based, Canis lupus familiaris; conditions: in vivo
[23] = system: Rattus norvegicus; test: In vivo inhibition of PHD in Wistar rat assessed as increase in packed cell volume at 1.25 mg/kg, po measured after 26 days relative to control; assay type: functional; set-up: scale not given: the % may be the effect or the level left
[24] = Oral bioavailability in monkey; assay type: ADME, organism-based, Macaca mulatta; conditions: rhesus monkey, in vivo
[25] = Oral bioavailability in Wistar rat; assay type: ADME, organism-based; conditions: in vivo
[26] = species on record: Homo sapiens; test: Inhibition of PHD in human Hep3B cells assessed as induction of EPO level by cell based assay relative to control
[27] = system: Homo sapiens; test: In vivo inhibition of PHD in human assessed as induction of EPO level in serum at 900 mg measured after 18 hrs; assay type: functional
[28] = system: Mus musculus; test: In vivo inhibition of PHD in B6D2F1 mouse assessed as induction of EPO level at 60 mg/kg measured at 12 hrs post dose relative to control; assay type: functional
[29] = system: Homo sapiens; test: In vivo inhibition of PHD in human assessed as induction of EPO level in serum at 10 mg measured after 4 weeks; assay type: functional
[30] = biological target: T2, Prolyl hydroxylase EGLN3; test: Inhibition of PHD3 (unknown origin)
[31] = biological target: Prolyl hydroxylase EGLN2 (Homo sapiens, UniProt Q96KS0); test: Inhibition of PHD1 (unknown origin)
Prolyl hydroxylase EGLN2, sequence (Q96KS0 whole entry): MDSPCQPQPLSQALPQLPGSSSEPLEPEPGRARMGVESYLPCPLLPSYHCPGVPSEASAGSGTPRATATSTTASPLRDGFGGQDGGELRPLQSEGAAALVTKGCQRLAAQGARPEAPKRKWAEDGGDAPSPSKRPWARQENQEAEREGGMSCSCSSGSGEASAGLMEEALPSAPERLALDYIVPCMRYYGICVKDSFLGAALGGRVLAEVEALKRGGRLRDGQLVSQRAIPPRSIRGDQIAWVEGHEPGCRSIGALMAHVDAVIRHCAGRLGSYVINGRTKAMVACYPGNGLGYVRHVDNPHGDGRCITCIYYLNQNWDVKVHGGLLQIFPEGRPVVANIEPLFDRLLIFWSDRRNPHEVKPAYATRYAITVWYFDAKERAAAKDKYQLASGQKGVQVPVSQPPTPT

T2 sequence (Q9H6Z9 whole entry, the tested form may be a part): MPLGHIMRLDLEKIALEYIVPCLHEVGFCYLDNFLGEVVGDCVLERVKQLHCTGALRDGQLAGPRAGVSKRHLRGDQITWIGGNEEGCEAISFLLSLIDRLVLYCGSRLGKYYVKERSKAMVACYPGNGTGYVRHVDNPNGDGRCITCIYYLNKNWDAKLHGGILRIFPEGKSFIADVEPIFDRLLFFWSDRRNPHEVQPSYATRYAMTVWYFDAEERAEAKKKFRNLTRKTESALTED
T1 sequence (Q9GZT9 whole entry): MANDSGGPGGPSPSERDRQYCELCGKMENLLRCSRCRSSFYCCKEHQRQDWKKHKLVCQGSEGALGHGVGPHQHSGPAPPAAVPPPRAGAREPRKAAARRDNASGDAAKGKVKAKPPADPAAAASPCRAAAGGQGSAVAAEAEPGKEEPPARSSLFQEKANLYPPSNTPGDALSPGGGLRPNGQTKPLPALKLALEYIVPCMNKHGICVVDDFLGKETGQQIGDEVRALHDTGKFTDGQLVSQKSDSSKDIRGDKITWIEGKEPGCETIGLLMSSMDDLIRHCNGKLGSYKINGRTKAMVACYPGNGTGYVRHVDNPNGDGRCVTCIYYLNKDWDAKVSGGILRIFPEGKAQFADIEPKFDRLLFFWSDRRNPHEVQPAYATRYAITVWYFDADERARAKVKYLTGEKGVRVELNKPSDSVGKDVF

SMILES: COc1ccc(C(NC(=O)c2cnc(-c3cccnn3)nc2O)c2ccc([PH](=O)O)cc2)cc1 (stereo not given)
- IC50 [1]: < 10 nM

SMILES: O=c1c(-c2cccnc2)c[nH]n1-c1ccccn1
- EC50 [2]: 4900 nM
- IC50 [3]: 430 nM

SMILES: N#Cc1nc(C(=O)NCCC(=O)O)c(O)c2ccc(Oc3ccccc3)cc12
- Ratio IC50 [4]: 5

SMILES: COc1ccc(-n2c(=S)[nH]c3cc(C(=O)NCc4ccc(Cl)cc4)sc3c2=O)nc1OC
- IC50 [5]: 1 to 100 nM

SMILES: O=C(NCc1ccc2c(c1)CCO2)c1ccc(-c2ncn[nH]2)nc1
- IC50 [6]: 61 nM

SMILES: COCC1(CNC(=O)c2ccc(-n3ncc(-c4ccnc(OC)c4)c3O)nc2)CCCC1
- pEC50 [7]: 6.45
- pIC50 [8]: 8.4

SMILES: CC(C)(C)NC(=O)c1ccc(-n2[nH]cc(-c3cccnc3)c2=O)nc1
- IC50 [3]: 910 nM

SMILES: CC(CC(=O)O)NC(=O)c1nc(C#N)c2cc(Oc3ccccc3)ccc2c1O (stereo not given)
- Ratio IC50 [4]: 40

SMILES: CCN1CCN(C(=O)c2ccc(-n3ncc(-c4ccc(C#N)cc4C)c3O)nc2)CC1
- Activity [9]: 59%
- Activity [10]: 56%
- Activity [11]: 50%
- Activity [12]: 51%
- pEC50 [7]: 6.25
- pIC50 [8]: 8
- fold change (FC) [13]: 2

SMILES: O=C(O)c1cnn(-c2nc(O)c3c(cnn3C(c3ccc(Cl)cc3)c3ccc(Cl)cc3)n2)c1
- Ratio IC50 [14]: 130
- fold change (FC) [15]: 40

SMILES: Cc1nc(C(=O)NCC(=O)O)c(O)c2ccc(Oc3ccccc3)cc12 [ROXADUSTAT]
- Activity [16]: >=1 g/dl
- Activity [17]: 115 mU/ml
- half-life [18]: 12 h

SMILES: O=C(O)CCC(=O)NNC(=O)c1cc2ccccc2cn1
- IC50 [19]: 18400 nM

SMILES: COc1ccc(-n2c(=O)[nH]c3cc(C(=O)NCc4ccc(Cl)cc4)sc3c2=O)nc1OC
- IC50 [5]: 1 to 100 nM

SMILES: O=C(O)CCNC(=O)c1ncc(C(=O)NC(c2ccccc2)c2ccccc2)c(O)n1
- IC50 [1]: < 20 nM

SMILES: O=C(O)CNC(=O)c1ncc(C#CCOc2ccc(Cl)cc2)cc1O [DDO-3055]
- IC50 [20]: 13700 nM

SMILES: O=c1c(-n2ccnn2)c[nH]n1-c1cc(N2CCOCC2)ncn1 [MOLIDUSTAT]
- Activity [21]: 17%
- bioavailability [22]: 71%
- Activity [23]: 3%
- bioavailability [24]: 61%
- bioavailability [25]: 34%

SMILES: O=C(Cc1ccc(-c2ccccc2)cc1)Nc1cnc(-n2cccn2)nc1O
- IC50 [1]: 0.7 nM

SMILES: O=C(O)CNC(=O)c1ncc(-c2cccc(F)c2)cc1O
- IC50 [20]: 13700 nM

SMILES: COc1ccc(Oc2ccc3c(O)c(C(=O)NC(C)(C)CC(=O)O)nc(C#N)c3c2)cc1
- Ratio IC50 [4]: 40

SMILES: CC(=O)Nc1c[nH]n(-c2ccc(C(=O)NCc3cccc(-c4ccccc4)c3)cc2)c1=O
- fold change (FC) [26]: 40

SMILES: O=C(O)CNC(=O)c1ncc(-c2cccc(Cl)c2)cc1O
- Activity [27]: 32.4 mU/ml

SMILES: O=C(O)CNC(=O)c1c(O)n(C2CCCCC2)c(=O)n(C2CCCCC2)c1=O
- fold change (FC) [28]: 11.2
- Activity [29]: 500 mIU/ml
- IC50 [30]: 5.5 nM
- IC50 [31]: 3.5 nM
